In PubChem BioAssay (NCI):
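All cell lines were grown in 96-well plates and treated with compound for 48 hours. GI50: concentration for 50% inhibition of growth. TGI: concentration producing complete growth inhibition.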

Tests used:
Test in all cases: NCI tumour cell line growth inhibition, 48 h
DU-145 prostate = system: DU-145 prostate
ACHN renal = system: ACHN renal
UACC-257 melanoma = system: UACC-257 melanoma
NCI-H460 lung = system: NCI-H460 lung
MALME-3M melanoma = system: MALME-3M melanoma
BT-549 breast = system: BT-549 breast
OVCAR-5 ovarian = system: OVCAR-5 ovarian
HCT-116 colon = system: HCT-116 colon
A549 NSCLC = system: A549 NSCLC
NCI-H522 lung = system: NCI-H522 lung

| Structure (SMILES) | TGI (DU-145 prostate) [µM] | TGI (ACHN renal) [µM] | TGI (UACC-257 melanoma) [µM] | TGI (NCI-H460 lung) [µM] | TGI (MALME-3M melanoma) [µM] | TGI (BT-549 breast) [µM] | TGI (OVCAR-5 ovarian) [µM] | TGI (HCT-116 colon) [µM] | TGI (A549 NSCLC) [µM] | TGI (NCI-H522 lung) [µM] | GI50 (DU-145 prostate) [µM] | GI50 (ACHN renal) [µM] | GI50 (UACC-257 melanoma) [µM] | GI50 (NCI-H460 lung) [µM] | GI50 (MALME-3M melanoma) [µM] | GI50 (BT-549 breast) [µM] | GI50 (OVCAR-5 ovarian) [µM] | GI50 (HCT-116 colon) [µM] | GI50 (A549 NSCLC) [µM] | GI50 (NCI-H522 lung) [µM] |
| --- | --- | --- | --- | --- | --- | --- | --- | --- | --- | --- | --- | --- | --- | --- | --- | --- | --- | --- | --- | --- |
| Cc1c(-c2cnccn2)ssc1=S | > 100 | > 100 | 38.1 | > 100 | > 100 | 68.5 | > 100 | > 100 | > 100 | > 89.8 |  |  |  |  |  |  |  |  |  |  |
| COc1cc2c(cc1OC(C)C)[C@H](c1ccc(Cl)cc1)N(c1ccc(N(C)CC3CCC(N4CCN(C)C(=O)C4)CC3)cc1)C(=O)C2 (some centres undefined) | 11.2 | 3.62 | 6.92 | 4.43 | 2.74 | 7.7 | 9.58 | 2.48 | 5.24 | 10.4 | 5.3 | 0.32 | 1.4 | 0.531 | 0.09 | 2.18 | 2.66 | 0.447 | 0.537 | 3.9 |
| COc1ccc(Nc2nc3cc(N)cc(N)c3nc2-c2ccccc2)cc1 | > 100 | 43.3 | 27.5 | 89.9 | 28.3 | 31.9 | 53.4 | 28.1 | > 100 | 27.9 | 39.3 | 15.3 |  | 26.8 | 15 | 13.4 | 21.5 | 14.9 | 27.8 | 14.7 |
| Cc1onc(-c2ccccc2)c1C(=O)N/N=C/c1cc(Cl)cc(Cl)c1O | > 100 | > 100 | 27.3 | > 100 | 27.4 | 49.4 | > 100 | > 100 | > 100 | 33.6 | 6.72 | 2.67 | 3.47 | 3.6 | 4.03 | 12.1 | 8.65 | 4.11 | 5.07 | 3.67 |
| COc1ccccc1Nc1cc(O)c2c(=O)cc(-c3ccccc3)oc2c1 | 16.4 | 13 | 63.5 | 12 | 11.9 | 37.2 | 27.3 | > 100 | > 100 | 27.1 | 4.35 | 3.38 | 6.72 | 3.37 | 2.13 | 4.96 | 4.82 | 3.31 | 5.16 | 2.67 |
| CC(C)C[C@H](NC(=O)CNC(=O)c1cc(Cl)ccc1Cl)B(O)O | 15.3 | 15.8 | 0.0492 | 0.919 | 0.035 | 0.137 | 0.551 | 0.659 | 7.6 | 0.0414 | < 0.0262 | < 0.0182 | 0.0153 | 0.0831 | < 0.0115 | < 0.0145 | 0.0493 | < 0.0131 | 0.046 | 0.0164 |
| CC1Cc2c(Cl)ncnc2N(C)c2ccc(Cl)cc21 (centres undefined) | > 100 | > 100 | 78.5 | > 100 | 3.67 | 11.1 | > 100 | 12.6 | > 100 | 0.776 | 0.589 | 0.348 | 0.429 | 0.381 | 0.276 | 0.309 | 0.592 | 0.314 | 0.378 | 0.232 |
| Oc1c(Cl)cc(Cl)c(Cl)c1CNCCNCc1c(O)c(Cl)cc(Cl)c1Cl | 12.6 | 7.22 | 9.88 | 7.52 | 9.67 | 10 | 29 | 8.52 | 8.21 | 8.24 | 2.09 | 0.549 | 1.76 | 0.44 | 1.11 | 2.67 | 2.49 | 0.731 | 1.11 | 1.28 |
| CCc1nc(N)nc(N)c1-c1ccc(Cl)c([N+](=O)[O-])c1 | > 100 | > 100 | > 100 | > 100 | > 100 | > 100 | > 100 | > 100 | > 100 | > 100 |  |  |  |  |  |  |  |  |  |  |
| COc1ccc(/C=C\c2cc(OC)c(OC)c(OC)c2)cc1OCC(=O)Nc1nc2ccc(F)cc2s1 | > 100 | > 100 | > 100 | > 100 | > 100 | > 100 | > 100 | > 100 | > 100 | > 100 | 8.97 | 3.33 | 8.69 | 4.31 | 5.22 | 16.7 | > 100 | 4.48 | 5.99 | 2.92 |
